Data published in patent US8748476B2, “Darifenacin for use in the treatment of urgency induced by overactive bladder” (Warner Chilcott Company, LLC, priority 2002, dated 2014).
Marks after values point to notes of the source that are not given here.

Assays:
[1] = test system: OAB Wet patients (subjects with a diagnosis of overactive bladder); test: Clinical Study 1: multicentre trial, diary record of urgency episodes and severity of urgency (VAS); assay type: in vivo, human; conditions: for No of episodes of urgency/day, Median change from baseline / No of episodes of urgency/day, Median % Change from baseline: 12 weeks of treatment; for No of episodes of urgency/day, Median change from baseline: placebo −1.2; for No of episodes of urgency/day, Median % Change from baseline: placebo −15.7; for No of episodes of urgency/day, Median difference from placebo / Severity of urgency/day, Median difference from placebo: corrected for placebo; for No of episodes of urgency/day, Median difference from placebo / Severity of urgency/day, Median change from baseline / Severity of urgency/day, Median difference from placebo: 12 weeks; for Severity of urgency/day, Median change from baseline: visual analogue scale (mild to severe), placebo −3.9; for Severity of urgency/day, Median difference from placebo: visual analogue scale
Protocol: Two novel methods for the assessment of urgency were used. The first was for use in a large scale clinical trial, and the second was for use in clinical laboratory studies. In both of these studies, darifenacin was administered as its hydrobromide salt. It was presented in slow release matrix tablets of the type described in U.S. Pat. No. 6,106,864, particularly Example 3. Tablets were administered once daily (o.d.). In this study, OAB Wet patients recorded each episode of urgency per day and the overall severity of urgency for each day in a diary. The severity of urgency was recorded by the use of a visual analogue scale (VAS) where the anchor points were mild and severe. Darifenacin (as hydrobromide salt; 7.5 mg, 15 mg and 30 mg of the active moiety, o.d.) and placebo were evaluated in subjects with a diagnosis of overactive bladder in a multicentre trial and symptoms of urgency were assessed using the VAS at baseline and at the end of the study (12 weeks of treatment). 108 patients (14 male, 94 female) received 7.5 mg; 107 patients (15 male, 92 female) received 15 mg; 114 patients (16 male, 98 female) received 30 mg; and 108 patients (18 male, 90 female) received placebo.

[2] = test system: subjects with symptoms of urgency (mixture of OAB Wet and OAB Dry sufferers); test: Clinical Study 2: warning time between onset of urgency and need to micturate, measured with a modified stop-watch; assay type: in vivo, human
Protocol: Two novel methods for the assessment of urgency were used. The first was for use in a large scale clinical trial, and the second was for use in clinical laboratory studies. In both of these studies, darifenacin was administered as its hydrobromide salt. It was presented in slow release matrix tablets of the type described in U.S. Pat. No. 6,106,864, particularly Example 3. Tablets were administered once daily (o.d.). This study used a novel method for measuring the time between the first onset of the urgency and the need to micturate, which is known as the ‘warning time’. A modified stop-watch was used which required the subject to press a button at the onset of urge and a second button when they felt they needed to micturate. Darifenacin (as the hydrobromide salt; 30 mg o.d.) and placebo were evaluated in subjects with symptoms of urgency. The subjects were a mixture of OAB Wet and OAB Dry sufferers. The ‘warning time’ was assessed at baseline and following 2 weeks of treatment using the modified stop watch. 36 patients (29 female, 7 male) received darifenacin; and 36 patients (22 female, 14 male) received placebo.

[3] = 15 mg o.d., baseline 8.6, P < 0.05
[4] = 30 mg o.d., baseline 8.4, P < 0.001
[5] = 7.5-30 mg, effect significantly greater than that produced by placebo
[6] = 15 mg o.d., baseline 56.2, P < 0.05
[7] = 30 mg o.d., baseline 53.5, P < 0.05
[8] = 30 mg o.d., 2 weeks of treatment

NC(=O)C(c1ccccc1)(c1ccccc1)[C@@H]1CCN(CCc2ccc3c(c2)CCO3)C1 [Darifenacin, (S)-2-(1-[2-(2,3-dihydrobenzofuran-5-yl)ethyl]-3-pyrrolidinyl)-2,2-diphenyl-acetamide]
No of episodes of urgency/day, Median change from baseline ([1]; 7.5 mg o.d., baseline 8.5): −1.8 episodes of urgency/day
No of episodes of urgency/day, Median % Change from baseline ([1]; 7.5 mg o.d.): −29.2%
No of episodes of urgency/day, Median change from baseline [1, 3]: −2.3* episodes of urgency/day
No of episodes of urgency/day, Median % Change from baseline ([1]; 15 mg o.d.): −26.9%
No of episodes of urgency/day, Median change from baseline [1, 4]: −3*** episodes of urgency/day
No of episodes of urgency/day, Median % Change from baseline ([1]; 30 mg o.d.): −33.1%
Effect on number of episodes of urgency [1, 5]: dose-related reduction
Effect on overall severity of urgency [1, 5]: dose-related reduction
Effect on the symptom of urgency in subjects with overactive bladder (conclusion) ([1]; conclusion drawn from both clinical studies): clinically significant attenuation
No of episodes of urgency/day, Median difference from placebo ([1]; 7.5 mg o.d., baseline 8.5): −0.5 episodes of urgency/day
No of episodes of urgency/day, Median difference from placebo [1, 3]: −1.1* episodes of urgency/day
No of episodes of urgency/day, Median difference from placebo [1, 4]: −1.4*** episodes of urgency/day
Severity of urgency/day, Median change from baseline ([1]; 7.5 mg o.d., baseline 53.2): −7
Severity of urgency/day, Median change from baseline [1, 6]: −7*
Severity of urgency/day, Median change from baseline [1, 7]: −9.4*
Severity of urgency/day, Median difference from placebo ([1]; 7.5 mg o.d., baseline 53.2): −2.5
Severity of urgency/day, Median difference from placebo [1, 6]: −3.8*
Severity of urgency/day, Median difference from placebo [1, 7]: −5.5*
Effect on warning time compared with placebo [2, 8]: significant increase
Warning time, Median difference from placebo [2, 8]: 4.3 min
Warning Time, Week 2 (Median) ([2]; 30 mg o.d., 2 weeks of treatment, baseline median 4.7, placebo week 2 4.1, P < 0.01): 8.4** Min
Response of OAB Wet and OAB Dry subjects ([2]; both OAB Wet and OAB Dry subjects): responded to treatment
